Earlier results as cited in patent publication US20230000903A1, “METHODS AND SYSTEMS FOR NITRIC OXIDE THERAPY FOR THE TREATMENT OR PREVENTION OF RESPIRATORY INFECTIONS” (KNOW Bio, LLC, priority 2020, published 2023).

SMILES: [N]=O [NO, nitric oxide]
- radius of action from its site of origin (beyond which it is inactivated by binding to thiols or heme of hemoglobin): approximately 200 microns
- half-life in the body (in the body): less than 6 seconds
- share of the nitric oxide dose inhaled excreted in the urine as nitrate (urine, nitrate as predominant metabolite, inhaled dose): more than 70%
